Measured values reported in ChEMBL document CHEMBL6127114, “Discovery of Bis-imidazolecarboxamide Derivatives as Novel, Potent, and Selective TNIK Inhibitors for the Treatment of Idiopathic Pulmonary Fibrosis” (J Med Chem, 2024).
Values after ≈ are worked out from the molar mass of the structure shown.

How the values were obtained:
[1] = physchem; conditions: buffer, pH 7.4
[2] = Metabolic stability in mouse liver microsomes assessed as intrinsic clearance preincubated for 60 mins followed by NADPH addition and measured after 5 to 60 mins by LC-MS/MS analysis; type: ADME, Microsome; conditions: time 65-120 min, read-out: CLH
[3] = Metabolic stability in human liver microsomes assessed as intrinsic clearance preincubated for 60 mins followed by NADPH addition and measured after 5 to 60 mins by LC-MS/MS analysis; type: ADME, Microsome; conditions: time 65-120 min, read-out: CLH
[4] = molecular target: T1, TRAF2 and NCK-interacting protein kinase (Homo sapiens, UniProt Q9UKE5)
T1 sequence (Q9UKE5 whole entry): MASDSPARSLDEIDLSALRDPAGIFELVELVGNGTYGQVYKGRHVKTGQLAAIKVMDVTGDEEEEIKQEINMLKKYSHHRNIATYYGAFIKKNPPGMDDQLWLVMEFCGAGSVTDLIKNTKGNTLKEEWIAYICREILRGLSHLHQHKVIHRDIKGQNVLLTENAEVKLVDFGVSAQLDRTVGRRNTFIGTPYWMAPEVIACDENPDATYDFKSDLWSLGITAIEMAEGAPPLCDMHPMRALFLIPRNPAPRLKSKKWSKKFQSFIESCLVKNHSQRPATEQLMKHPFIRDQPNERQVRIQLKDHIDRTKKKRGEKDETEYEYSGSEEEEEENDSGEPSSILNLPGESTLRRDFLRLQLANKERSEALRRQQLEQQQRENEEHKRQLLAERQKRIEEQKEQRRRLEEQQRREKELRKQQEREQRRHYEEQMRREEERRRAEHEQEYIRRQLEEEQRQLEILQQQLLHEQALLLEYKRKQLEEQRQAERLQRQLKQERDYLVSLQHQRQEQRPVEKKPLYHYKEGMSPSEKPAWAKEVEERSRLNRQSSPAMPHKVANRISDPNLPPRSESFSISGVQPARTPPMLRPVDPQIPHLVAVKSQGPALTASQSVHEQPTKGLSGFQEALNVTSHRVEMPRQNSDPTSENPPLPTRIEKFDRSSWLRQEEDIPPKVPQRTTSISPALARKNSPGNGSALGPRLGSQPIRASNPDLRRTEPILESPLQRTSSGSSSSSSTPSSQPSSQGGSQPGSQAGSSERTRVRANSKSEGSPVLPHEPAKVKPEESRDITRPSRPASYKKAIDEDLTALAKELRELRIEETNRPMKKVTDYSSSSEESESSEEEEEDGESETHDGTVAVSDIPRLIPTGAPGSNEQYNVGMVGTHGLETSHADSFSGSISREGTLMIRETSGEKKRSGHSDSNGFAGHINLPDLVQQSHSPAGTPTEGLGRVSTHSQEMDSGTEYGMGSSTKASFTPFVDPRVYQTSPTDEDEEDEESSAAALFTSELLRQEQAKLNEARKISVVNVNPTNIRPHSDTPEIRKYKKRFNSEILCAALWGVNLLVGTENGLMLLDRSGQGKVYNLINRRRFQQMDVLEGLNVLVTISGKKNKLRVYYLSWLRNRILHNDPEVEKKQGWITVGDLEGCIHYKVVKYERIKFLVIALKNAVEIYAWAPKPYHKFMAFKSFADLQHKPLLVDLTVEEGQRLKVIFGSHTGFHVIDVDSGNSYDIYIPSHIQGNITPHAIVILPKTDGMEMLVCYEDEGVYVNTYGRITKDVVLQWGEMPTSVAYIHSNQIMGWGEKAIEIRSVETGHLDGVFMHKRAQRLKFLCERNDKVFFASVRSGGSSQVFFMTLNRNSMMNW

[5] = tested on: LX-2; assay: cells; conditions: Homo sapiens
[6] = in vitro; conditions: human, lx-2
[7] = tested on: LX-2; assay: cells; conditions: Homo sapiens; remark: listed apart in the source
[8] = tested on: Mus musculus; assay: Anti-hepatic fibrosis activity in CCL4-induced male C57BL6/J mouse hepatic fibrosis model assessed as change in body weight at 3 mg/kg, po meausred after 2 weeks (reference value: -1.8%); type: functional
[9] = Inhibition of fibronectin-1 protein expression in human Primary bronchial epithelial cell; type: functional, cell-based
[10] = tested on: Mus musculus; assay: Anti-hepatic fibrosis activity in CCL4-induced male C57BL6/J mouse hepatic fibrosis model assessed as change in body weight at 10 mg/kg, po meausred after 2 weeks (reference value: -1.8%); type: functional
[11] = molecular target: T2, Muscarinic acetylcholine receptor M1 (Homo sapiens, UniProt P11229); assay: Inhibition of human CHRM1 by Eurofins DiscoverX method
T2 sequence (P11229 whole entry): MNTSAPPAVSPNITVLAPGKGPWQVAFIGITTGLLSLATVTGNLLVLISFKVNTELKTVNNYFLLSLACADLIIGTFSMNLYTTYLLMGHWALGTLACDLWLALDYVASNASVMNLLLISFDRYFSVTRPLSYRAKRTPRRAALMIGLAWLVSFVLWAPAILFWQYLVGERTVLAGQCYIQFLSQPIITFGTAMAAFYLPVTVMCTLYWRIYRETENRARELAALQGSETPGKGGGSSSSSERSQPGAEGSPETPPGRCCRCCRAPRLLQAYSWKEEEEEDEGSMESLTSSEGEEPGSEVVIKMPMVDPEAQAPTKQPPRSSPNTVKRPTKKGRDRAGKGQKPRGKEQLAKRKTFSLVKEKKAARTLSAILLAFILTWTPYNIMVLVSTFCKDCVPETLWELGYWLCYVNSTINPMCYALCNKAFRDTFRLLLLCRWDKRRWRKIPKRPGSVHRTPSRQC

[12] = Apparent permeability in human Caco-2 cells; type: ADME, cell-based
[13] = molecular target: T1, TRAF2 and NCK-interacting protein kinase; remark: listed apart in the source

IC50 [4]	IC50 [5]	IC50 at 72 h [6]	IC50 [7]	SMILES	also measured
40.2 nM	–	–	–	CC(C)n1cnc(-c2ccc(F)cc2)c1-c1ccc(C(=O)Nc2ccc(CCO)cc2)o1	solubility kinetic at 24 h [1]: < 2 µM; microsomal CLint [2]: > 150 µL/min/mg; microsomal CLint [3]: > 150 µL/min/mg
6 nM	144 nM	> 100000 nM	572 nM	CC(=O)N1CCN(c2ccc(NC(=O)c3c[nH]c(-c4c(-c5ccc(F)cc5)ncn4C(C)C)n3)cc2)CC1	–
11.1 nM	81 nM	40500 nM	65 nM	CC(C)n1cnc(-c2ccc(F)cc2)c1-c1nc(C(=O)Nc2ccc(N3CCNCC3)cc2)c[nH]1	–
5.9 nM	–	–	–	CC(C)n1cnc(-c2ccc(F)cc2)c1-c1cccc(C(=O)Nc2ccc(N3CCN(C)CC3)cc2)n1	solubility kinetic at 24 h [1]: 105 µM (≈ 52.4 µg/mL); microsomal CLint [2]: 122 µL/min/mg; microsomal CLint [3]: 119 µL/min/mg
71.3 nM	–	–	–	CC(C)n1cnc(-c2ccc(Cl)cc2)c1-c1nc(C(=O)Nc2ccc(N3CCN(C)CC3)cc2)c[nH]1	–
–	–	–	–	CC(C)n1cnc(-c2ccc(F)cc2)c1-c1nc(C(=O)Nc2ccc(N3CCN(C)CC3)cc2)c[nH]1	Activity [8]: -0.671%; IC50 [9]: 250 nM; Activity [10]: 6.065%; IC50 [11]: 8400 nM
42 nM	519 nM	> 100000 nM	125 nM	CC(C)n1cnc(-c2ccc(F)cc2)c1-c1nc(C(=O)Nc2ccc(N3CCN(CC(F)(F)F)CC3)cc2)c[nH]1	–
10.5 nM	–	–	–	CC(C)n1cnc(-c2ccc(F)cc2)c1-c1ccc(C(=O)Nc2ccc(N3CCN(C)CC3)cc2)o1	solubility kinetic at 24 h [1]: 40 µM (≈ 19.5 µg/mL); microsomal CLint [2]: > 150 µL/min/mg; microsomal CLint [3]: > 150 µL/min/mg
5.7 nM	–	–	–	CC(C)n1cnc(-c2ccc(F)cc2)c1-c1cccc(C(=O)Nc2ccc(CCO)cc2)n1	solubility kinetic at 24 h [1]: < 2 µM; microsomal CLint [2]: 124 µL/min/mg; microsomal CLint [3]: 161 µL/min/mg
199 nM	–	–	–	CC(C)n1cnc(-c2ccc(F)cc2)c1-c1nc(C(=O)Nc2ccc(N3CCN(C(N)=O)CC3)cc2)c[nH]1	–
10.6 nM	–	–	–	CC(C)n1cnc(-c2ccc(F)cc2)c1-c1nc(C(=O)Nc2ccc(N3CCN(S(N)(=O)=O)CC3)cc2)c[nH]1	solubility kinetic at 24 h [1]: < 2 µM
5.7 nM	–	–	–	CC(C)n1cnc(-c2ccc(F)cc2)c1-c1cccc(C(=O)Nc2ccc(CCC(=O)O)cc2)n1	solubility kinetic at 24 h [1]: < 2 µM; microsomal CLint [2]: < 9.6 µL/min/mg; microsomal CLint [3]: < 9.6 µL/min/mg
79.1 nM	839 nM	> 100000 nM	904 nM	CC(C)n1cnc(-c2ccc(F)cc2)c1-c1nc(C(=O)Nc2ccc(N(CCO)CCO)cc2)c[nH]1	–
51 nM	> 10000 nM	> 100000 nM	> 10000 nM	CC(C)n1cnc(-c2ccc(F)cc2)c1-c1nc(C(=O)Nc2ccc(CCCCC(=O)O)cc2)c[nH]1	Papp [12]: 0.07 ×10⁻⁶ cm/s
9.5 nM	306 nM	> 100000 nM	264 nM	CC(C)n1cnc(-c2ccc(F)cc2)c1-c1nc(C(=O)Nc2ccc(CCO)cc2)c[nH]1	–
51 nM	–	–	–	CC(C)n1cnc(-c2ccc(F)c(F)c2)c1-c1nc(C(=O)Nc2ccc(N3CCN(C)CC3)cc2)c[nH]1	–
149 nM	> 10000 nM	> 100000 nM	> 10000 nM	CC(C)n1cnc(-c2ccc(F)cc2)c1-c1nc(C(=O)Nc2ccc(C(=O)O)cc2)c[nH]1	Papp [12]: 0.07 ×10⁻⁶ cm/s
46.3 nM	> 10000 nM	> 100000 nM	> 10000 nM	CC(C)n1cnc(-c2ccc(F)cc2)c1-c1nc(C(=O)Nc2ccc(CCC(=O)O)cc2)c[nH]1	Papp [12]: 0.07 ×10⁻⁶ cm/s
21.1 nM	123 nM	> 100000 nM	162 nM	CC(C)n1cnc(-c2ccc(F)cc2)c1-c1nc(C(=O)Nc2ccc(N3CCN(CCO)CC3)cc2)c[nH]1	–
34.3 nM	115 nM	> 100000 nM	> 10000 nM	CC(C)n1cnc(-c2ccc(F)cc2)c1-c1nc(C(=O)Nc2ccc(N3CC[N+](C)([O-])CC3)cc2)c[nH]1	–
18 nM	71 nM	12300 nM	71 nM	CC1CN(c2ccc(NC(=O)c3c[nH]c(-c4c(-c5ccc(F)cc5)ncn4C(C)C)n3)cc2)CC(C)N1C (stereo not given)	–
–	–	–	–	Cn1ccc2cc(-c3ccc4c(c3)SCCN(Cc3ccc(F)cc3)C4=O)cnc21	IC50 [13]: 26 nM
5.2 nM	–	–	–	CC(C)n1cnc(-c2ccc(F)cc2)c1-c1cccc(C(=O)Nc2ccc(N3CCN(CCO)CC3)cc2)n1	solubility kinetic at 24 h [1]: 5.3 µM (≈ 2.8 µg/mL); microsomal CLint [2]: 69.5 µL/min/mg; microsomal CLint [3]: 141 µL/min/mg
> 10000 nM	–	–	–	CC(C)n1cnc(-c2ccc(C(F)(F)F)cc2)c1-c1nc(C(=O)Nc2ccc(N3CCN(C)CC3)cc2)c[nH]1	–
47 nM	898 nM	> 100000 nM	713 nM	CC(C)n1cnc(-c2ccc(F)cc2)c1-c1nc(C(=O)Nc2ccc(N3CCN(C)C(=O)C3)cc2)c[nH]1	–

SMILES	IC50 [4]	IC50 [5]	IC50 at 72 h [6]	IC50 [7]	also measured
CC(C)n1cnc(-c2ccc(F)cc2)c1-c1nc(C(=O)Nc2ccc(N3CC4CCC(C3)N4C)cc2)c[nH]1	4 nM	42 nM	22600 nM	77 nM	–
